Experimental data taken from the supplement of paper PMC10307832.

Tests used:
Assay in all cases: relative viability (nuclei count vs DMSO), 5 days (fraction); higher = more cells survive
Doxorubicin + Crizotinib = compound: COc1cccc2c1C(=O)c1c(O)c3c(c(O)c1C2=O)C[C@@](O)(C(=O)CO)C[C@@H]3O[C@H]1C[C@H](N)[C@H](O)[C@H](C)O1 [Doxorubicin] + C[C@@H](Oc1cc(-c2cnn(C3CCNCC3)c2)cnc1N)c1c(Cl)ccc(F)c1Cl [Crizotinib] (partner 1 µM)
Method in brief: (§1)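 For relative viability, nuclei counts in treated wells were divided by those in vehicle wells. Lung cancer cell lines had been pin-tool dosed in 1536-well plates the day after seeding and cultured for 5 days, then fixed and stained in one step (final 0.05% Triton X-100, 1% formaldehyde, 1 ug/ml Hoechst) and imaged at 4×. Doses were one drug alone or a fixed anchor-drug dose plus five library-drug doses (not always all listed) in √10 steps, and values are duplicate-plate medians.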

Doxorubicin + Olaparib = compound: COc1cccc2c1C(=O)c1c(O)c3c(c(O)c1C2=O)C[C@@](O)(C(=O)CO)C[C@@H]3O[C@H]1C[C@H](N)[C@H](O)[C@H](C)O1 [Doxorubicin] + O=C(c1cc(Cc2n[nH]c(=O)c3ccccc23)ccc1F)N1CCN(C(=O)C2CC2)CC1 [Olaparib] (partner 8 µM)
Method in brief: as §1

Doxorubicin + Pemetrexed = compound: COc1cccc2c1C(=O)c1c(O)c3c(c(O)c1C2=O)C[C@@](O)(C(=O)CO)C[C@@H]3O[C@H]1C[C@H](N)[C@H](O)[C@H](C)O1 [Doxorubicin] + Nc1nc2[nH]cc(CCc3ccc(C(=O)N[C@@H](CCC(=O)O)C(=O)O)cc3)c2c(=O)[nH]1 [Pemetrexed] (partner 0.2 µM)
Method in brief: as §1

BAY61-3606 + Linsitinib = compound: COC1=C(C=C(C=C1)C2=CC3=NC=CN3C(=N2)NC4=C(C=CC=N4)C(=O)N)OC [BAY61-3606] + C[C@]1(O)C[C@@H](c2nc(-c3ccc4ccc(-c5ccccc5)nc4c3)c3c(N)nccn32)C1 [Linsitinib] (partner 1 µM)
Method in brief: as §1

Cell Line	relative viability (Doxorubicin + Crizotinib; first compound 0.001 µM)	relative viability (Doxorubicin + Crizotinib; first compound 0.003162 µM)	relative viability (Doxorubicin + Crizotinib; first compound 0.01 µM)	relative viability (Doxorubicin + Crizotinib; first compound 0.03162 µM)	relative viability (Doxorubicin + Crizotinib; first compound 0.1 µM)	relative viability (Doxorubicin + Olaparib; first compound 0.001 µM)	relative viability (Doxorubicin + Olaparib; first compound 0.003162 µM)	relative viability (Doxorubicin + Olaparib; first compound 0.01 µM)	relative viability (Doxorubicin + Olaparib; first compound 0.03162 µM)	relative viability (Doxorubicin + Olaparib; first compound 0.1 µM)	relative viability (Doxorubicin + Pemetrexed; first compound 0.001 µM)	relative viability (Doxorubicin + Pemetrexed; first compound 0.003162 µM)	relative viability (Doxorubicin + Pemetrexed; first compound 0.01 µM)	relative viability (Doxorubicin + Pemetrexed; first compound 0.03162 µM)	relative viability (Doxorubicin + Pemetrexed; first compound 0.1 µM)	relative viability (BAY61-3606 + Linsitinib; first compound 0.02 µM)	relative viability (BAY61-3606 + Linsitinib; first compound 0.06325 µM)	relative viability (BAY61-3606 + Linsitinib; first compound 0.2 µM)	relative viability (BAY61-3606 + Linsitinib; first compound 0.6325 µM)	relative viability (BAY61-3606 + Linsitinib; first compound 2 µM)
NCI-H2228	0.562	0.384	0.421	0.343	0.197	0.579	0.717	0.682	0.249	0.179	0.335	0.344	0.32	0.278	0.244	0.663	0.552	0.668	0.714	0.496
EMC-BAC-2	0.793	0.824	0.748	0.674	0.692	0.487	0.367	0.355	0.317	0.302	0.491	0.48	0.444	0.409	0.369	0.837	0.862	0.852	0.876	0.833
NCI-H2009	1.06	0.991	0.893	0.352	0.222	0.735	0.557	0.64	0.457	0.315	1.04	0.987	1.01	0.788	0.617	1.19	1.28	1.18	1.18	1.07
NCI-H661	0.971	1.21	1.08	1.02	0.993	0.674	0.881	0.681	0.542	0.52	0.894	1.02	0.891	0.754	0.643	0.868	0.484	0.627	0.616	0.405
NCI-H838	0.8	0.877	0.87	0.417	0.234	0.795	0.759	0.702	0.337	0.279	0.252	0.228	0.229	0.256	0.236	1.12	1	1.06	1.13	0.891
NCI-H1915	0.917	0.915	0.871	0.889	0.952	0.256	0.258	0.249	0.311	0.27	0.533	0.529	0.525	0.568	0.502	1.1	1.06	1.05	1.06	0.854
NCI-H441	0.827	0.644	0.63	0.487	0.48	0.545	0.518	0.511	0.235	0.239	0.253	0.264	0.265	0.229	0.224	0.646	0.628	0.626	0.535	0.38
NCI-H1355	1.05	1.16	1.01	0.964	1.05	0.732	0.688	0.694	0.704	0.85	1	1.02	1	1.01	1.04	0.798	0.8	0.799	0.891	0.678
NCI-H1651	0.934	0.929	0.855	0.836	0.871	0.216	0.182	0.205	0.184	0.198	0.591	0.628	0.604	0.57	0.588	0.908	0.909	0.91	1.12	0.823
NCI-H2023	0.598	0.679	0.36	0.0967	0.0644	0.454	0.336	0.19	0.0859	0.0625	0.247	0.218	0.212	0.128	0.0912	0.703	0.681	0.779	0.715	0.557
LU99A	0.548	0.522	0.671	0.417	0.46	0.235	0.264	0.287	0.274	0.253	0.199	0.186	0.191	0.173	0.165	0.544	0.548	0.575	0.501	0.318
NCI-H322M	1.02	1.07	0.86	0.922	0.893	0.731	0.765	0.745	0.542	0.508	0.682	0.542	0.66	0.548	0.512	1.05	0.946	0.911	0.925	0.878
LOU-NH91	–	0.763	0.772	0.674	0.711	–	0.877	0.899	0.666	0.462	–	0.415	0.359	0.365	0.276	0.978	0.858	0.977	1.01	0.796
RERF-LC-KJ	0.872	0.846	0.865	0.956	0.7	0.906	0.784	0.55	0.3	0.261	0.458	0.496	0.418	0.39	0.382	0.844	0.918	0.852	0.886	0.807
H3255	0.917	0.88	0.804	0.608	0.45	0.541	0.553	0.541	0.48	0.424	0.526	0.558	0.559	0.535	0.523	0.989	0.987	1.07	1.18	0.854
LXF-289	0.761	0.832	0.832	0.837	0.805	1.03	1.12	0.998	1.07	1.15	0.95	0.917	0.839	1.03	0.929	0.906	1.02	0.948	1.05	0.569
